Measurements taken from US20070208166A1, “Tao Kinase Modulators And Method Of Use” (Exelixis, Inc., priority 2003, published 2007).

Assays:
Format in all cases: biochemical
[1] = target: T1, KIAA 1361 (baculovirus expressed human KIAA 1361 kinase domain 2-322) (Homo sapiens, UniProt Q7L7X3); assay: KIAA 1361 Luciferase-Coupled Chemiluminescent Kinase assay (LCCA); settings: 2 μM ATP, 10 μM MBP, 12 nM KIAA 1361, 2 hours; read-out: KIAA1361 inhibition IC50
T1 construct: human KIAA 1361 kinase domain 2-322; made in house
T1 sequence (Q7L7X3 2-322): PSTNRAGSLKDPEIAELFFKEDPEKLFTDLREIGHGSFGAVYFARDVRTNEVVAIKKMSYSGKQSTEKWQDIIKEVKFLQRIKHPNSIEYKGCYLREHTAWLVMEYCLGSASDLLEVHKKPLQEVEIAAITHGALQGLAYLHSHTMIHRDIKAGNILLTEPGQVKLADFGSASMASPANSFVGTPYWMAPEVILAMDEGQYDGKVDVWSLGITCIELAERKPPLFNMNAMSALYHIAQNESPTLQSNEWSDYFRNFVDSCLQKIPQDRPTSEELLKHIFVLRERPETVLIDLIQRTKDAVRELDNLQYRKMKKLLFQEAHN
Method in brief: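 KIAA 1361 kinase domain 2-322 (baculovirus, 12 nM) with 2 μM ATP and 10 μM MBP in Tris pH 7.5, MgCl2, MnCl2; 2 h, ambient. Remaining ATP read by luciferase chemiluminescence; 10 concentrations, IC50 by four-parameter fit.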

[2] = target: T2, JIK (Homo sapiens, UniProt Q9H2K8); assay: JIK Luciferase-Coupled Chemiluminescent Kinase assay (LCCA); settings: 2 μM ATP, 10 μM MBP, 6 nM JIK, 2 hours; read-out: JIK inhibition IC50
T2 construct: 6 nM JIK (baculovirus expressed human KIAA 1361 kinase domain2-318); made in house
T2 sequence (Q9H2K8 2-318): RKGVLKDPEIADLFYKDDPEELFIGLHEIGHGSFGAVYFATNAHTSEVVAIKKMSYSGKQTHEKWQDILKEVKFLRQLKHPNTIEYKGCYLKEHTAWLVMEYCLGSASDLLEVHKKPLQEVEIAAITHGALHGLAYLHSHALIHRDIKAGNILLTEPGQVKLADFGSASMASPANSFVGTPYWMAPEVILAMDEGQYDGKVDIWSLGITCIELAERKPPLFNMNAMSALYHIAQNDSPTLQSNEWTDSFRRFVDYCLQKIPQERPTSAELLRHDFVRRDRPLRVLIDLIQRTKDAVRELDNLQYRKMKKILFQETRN
Method in brief: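 Baculovirus-expressed human KIAA 1361 kinase domain 2-318 at 6 nM, with 10 μM MBP and 2 μM ATP in Tris pH 7.5 with Mg/Mn, ran 2 h at ambient temperature. Remaining ATP was read by luciferase chemiluminescence. IC50 comes from a 10-concentration four-parameter fit.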

[3] = target: T3, TAO (Homo sapiens, UniProt Q9UL54); assay: TAO Luciferase-Coupled Chemiluminescent Kinase assay (LCCA); settings: 2 μM ATP, 10 μM MBP, 12 nM TAO, 2 hours; read-out: TAO inhibition IC50
T3 sequence (Q9UL54 1-1235): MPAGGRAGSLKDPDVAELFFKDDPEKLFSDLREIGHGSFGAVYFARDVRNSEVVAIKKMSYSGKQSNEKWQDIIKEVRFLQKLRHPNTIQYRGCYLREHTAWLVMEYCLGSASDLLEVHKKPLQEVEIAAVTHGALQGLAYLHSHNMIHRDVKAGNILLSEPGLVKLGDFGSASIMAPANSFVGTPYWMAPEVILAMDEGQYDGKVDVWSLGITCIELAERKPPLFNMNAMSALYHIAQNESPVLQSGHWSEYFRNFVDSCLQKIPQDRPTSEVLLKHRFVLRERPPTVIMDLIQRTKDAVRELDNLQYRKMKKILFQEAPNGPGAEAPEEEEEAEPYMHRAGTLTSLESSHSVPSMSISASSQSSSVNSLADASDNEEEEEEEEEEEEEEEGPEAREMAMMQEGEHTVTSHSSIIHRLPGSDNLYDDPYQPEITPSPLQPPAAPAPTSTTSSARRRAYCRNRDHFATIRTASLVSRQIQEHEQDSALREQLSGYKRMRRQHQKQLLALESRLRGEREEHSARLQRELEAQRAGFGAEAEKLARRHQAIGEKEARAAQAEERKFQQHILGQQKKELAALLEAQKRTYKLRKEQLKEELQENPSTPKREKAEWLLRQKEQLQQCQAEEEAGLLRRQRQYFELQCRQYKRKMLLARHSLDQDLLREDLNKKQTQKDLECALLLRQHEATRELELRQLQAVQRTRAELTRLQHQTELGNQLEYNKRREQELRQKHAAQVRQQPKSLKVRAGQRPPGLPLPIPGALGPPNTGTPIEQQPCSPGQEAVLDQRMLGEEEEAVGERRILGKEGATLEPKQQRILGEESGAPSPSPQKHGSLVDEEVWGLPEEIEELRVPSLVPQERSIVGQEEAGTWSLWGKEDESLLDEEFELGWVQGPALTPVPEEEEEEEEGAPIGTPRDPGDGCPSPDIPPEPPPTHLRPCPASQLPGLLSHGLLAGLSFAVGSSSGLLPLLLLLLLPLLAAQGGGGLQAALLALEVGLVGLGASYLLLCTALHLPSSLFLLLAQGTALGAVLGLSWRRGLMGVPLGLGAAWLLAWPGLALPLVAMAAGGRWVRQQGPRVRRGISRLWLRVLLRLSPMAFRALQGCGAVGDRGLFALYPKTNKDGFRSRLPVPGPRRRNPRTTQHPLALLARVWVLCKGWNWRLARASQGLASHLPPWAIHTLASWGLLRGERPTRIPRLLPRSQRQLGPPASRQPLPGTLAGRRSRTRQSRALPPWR

SMILES | IC50 [1] | IC50 [2] | IC50 [3]
COc1ccc2nc(NC(=O)CNC(=O)Cn3cnc4sc(C)c(C)c4c3=O)sc2c1 [Entry 40, N˜2˜-[(5,6-dimethyl-4-oxothieno[2,3-d]pyrimidin-3(4H)-yl)acetyl]-N-[6-(methyloxy)-1,3-benzothiazol-2-yl]glycinamide] | 50 to 500 nM | 50 to 500 nM | 500 to 5000 nM
O=C(CN1CCN(S(=O)(=O)CCc2cccc3ccccc23)CC1)Nc1ccccn1 [Entry 41, 2-{4-[(2-naphthalen-1-ylethyl)sulfonyl]piperazin-1-yl)-N-pyridin-2-ylacetamide] | < 50 nM | < 50 nM | 50 to 500 nM
O=C(NCC1COc2ccccc2O1)c1ccc2c(c1)NC(=O)c1ccccc1N2 (stereo not drawn) [Entry 42, N-(2,3-dihydro-1,4-benzodioxin-2-ylmethyl)-11-oxo-10,11-dihydro-5H-dibenzo[b,e][1,4]diazepine-8-carboxamide] | 50 to 500 nM | < 50 nM | 50 to 500 nM
O=C(CNC(=O)c1ccc(-c2ccccc2)cc1)NC1CCCc2ccccc21 (stereo not drawn) [Entry 43, N-[2-oxo-2-(1,2,3,4-tetrahydronaphthalen-1-ylamino)ethyl]biphenyl-4-carboxamide] | < 50 nM | < 50 nM | < 50 nM
O=C(CNC(=O)c1ccc2ccccc2c1)NC1CCCc2ccccc21 (stereo not drawn) [Entry 44, N-[2-oxo-2-(1,2,3,4-tetrahydronaphthalen-1-ylamino)ethyl]naphthalene-2-carboxamide] | 500 to 5000 nM | 500 to 5000 nM | > 5000 nM
O=C(CNC(=O)c1ccc(OC(F)(F)F)cc1)NC1CCCc2ccccc21 (stereo not drawn) [Entry 45, N-[2-oxo-2-(1,2,3,4-tetrahydronaphthalen-1-ylamino)ethyl]-4-[(trifluoromethyl)oxy]benzamide] | 500 to 5000 nM | 50 to 500 nM | 500 to 5000 nM
O=C(CNC(=O)c1cnc2ccccc2c1)NC1CCCc2ccccc21 (stereo not drawn) [Entry 46, N-[2-oxo-2-(1,2,3,4-tetrahydronaphthalen-1-ylamino)ethyl]quinoline-3-carboxamide] | > 5000 nM | > 5000 nM | > 5000 nM
O=C(CNC(=O)Nc1cc(C(F)(F)F)cc(C(F)(F)F)c1)NC1CCCc2ccccc21 (stereo not drawn) [Entry 47, N˜2˜-({[3,5-bis(trifluoromethyl)phenyl]amino}carbonyl)-N-(1,2,3,4-tetrahydronaphthalen-1-yl)glycinamide] | > 5000 nM | > 5000 nM | > 5000 nM
CCc1cccc(NC(=O)NCC(=O)NC2CCCc3ccccc32)c1 (stereo not drawn) [Entry 48, N˜2˜-{[(3-ethylphenyl)amino]carbonyl}-N-(1,2,3,4-tetrahydronaphthalen-1-yl)glycinamide] | > 5000 nM | > 5000 nM | > 5000 nM
O=C(CNC(=O)c1ccc(Oc2ccccc2)cc1)NC1CCCc2ccccc21 (stereo not drawn) [Entry 49, N-[2-oxo-2-(1,2,3,4-tetrahydronaphthalen-1-ylamino)ethyl]-4-(phenyloxy)benzamide] | 50 to 500 nM | 50 to 500 nM | 50 to 500 nM
O=C(CNC(=O)c1ccc(C2CCCCC2)cc1)NC1CCCc2ccccc21 (stereo not drawn) [Entry 50, 4-cyclohexyl-N-[2-oxo-2-(1,2,3,4-tetrahydronaphthalen-1-ylamino)ethyl]benzamide] | 50 to 500 nM | 50 to 500 nM | 50 to 500 nM
O=C(CNC(=O)c1ccc(OCc2ccccc2)cc1)NC1CCCc2ccccc21 (stereo not drawn) [Entry 51, N-[2-oxo-2-(1,2,3,4-tetrahydronaphthalen-1-ylamino)ethyl]-4-[(phenylmethyl)oxy]benzamide] | < 50 nM | < 50 nM | 50 to 500 nM
CCc1ccc(-c2ccc(C(=O)NCC(=O)NCc3ccccc3)cc2)cc1 [Entry 52, 4-ethyl-N-{2-oxo-2-[(phenylmethyl)amino]ethyl}biphenyl-4-carboxamide] | > 5000 nM | > 5000 nM | > 5000 nM
CCc1ccc(-c2ccc(C(=O)NCC(=O)NC3CCCCC3)cc2)cc1 [Entry 53, N-[2-(cyclohexylamino)-2-oxoethyl]-4′-ethylbiphenyl-4-carboxamide] | > 5000 nM | > 5000 nM | > 5000 nM
CCc1ccc(-c2ccc(C(=O)NCC(=O)NCc3ccc(Cl)c(Cl)c3)cc2)cc1 [Entry 54, N-(2-{[(3,4-dichlorophenyl)methyl]amino}-2-oxoethyl)-4′-ethylbiphenyl-4-carboxamide] | > 5000 nM | > 5000 nM | > 5000 nM
O=C(CNC(=O)C(NC(=O)C(c1ccccc1)C1CCCC1)c1cccnc1)NC1CCCc2ccccc21 (stereo not drawn) [Entry 55, N˜2˜-[{[cyclopentyl(phenyl)acetyl]amino}(pyridin-3-yl)acetyt]-N-(1,2,3,4-tetrahydronaphthalen-1-yl)glycinamide] | > 5000 nM | > 5000 nM | > 5000 nM
O=C(CNC(=O)c1ccc(O)cc1)NC1CCCc2ccccc21 (stereo not drawn) [Entry 56, 4-hydroxy-N-[2-oxo-2-(1,2,3,4-tetrahydronaphthalen-1-ylamino)ethyl]benzamide] | 50 to 500 nM | 50 to 500 nM | 500 to 5000 nM
CCc1ccc(-c2ccc(C(=O)NCC(=O)N3Cc4ccccc4C3)cc2)cc1 [Entry 57, N-[2-(1,3-dihydro-2H-isoindol-2-yl)-2-oxoethyl]-4′-ethylbiphenyl-4-carboxamide] | > 5000 nM | > 5000 nM | > 5000 nM
O=C(CNC(=O)c1ccc(N2CCOCC2)cc1)NC1CCCc2ccccc21 (stereo not drawn) [Entry 58, 4-morpholin-4-yl-N-[2-oxo-2-(1,2,3,4-tetrahydronaphthalen-1-ylamino)ethyl]benzamide] | > 5000 nM | 500 to 5000 nM | > 5000 nM
COc1cc2cc(C(=O)NCC(=O)NC3CCCc4ccccc43)[nH]c2cc1OC (stereo not drawn) [Entry 59, 5,6-bis(methyloxy)-N-(2-oxo-2-(1,2,3,4-tetrahydronaphthalen-1-ylamino)ethyl]-1H-indole-2-carboxamide] | 500 to 5000 nM | 50 to 500 nM | 500 to 5000 nM
CCc1ccc(-c2ccc(C(=O)NCC(=O)N3CCc4ccccc4C3)cc2)cc1 [Entry 60, N-[2-(3,4-dihydroisoquinolin-2(1H)-yl)-2-oxoethyl]-4′-ethylbiphenyl-4-carboxamide] | > 5000 nM | > 5000 nM | > 5000 nM
CCc1ccc(-c2ccc(C(=O)NCC(=O)N[C@H]3CCCc4ccccc43)cc2)cc1 [Entry 61, 4′-ethyl-N-{2-oxo-2-[(1S)-1,2,3,4-tetrahydronaphthalen-1-ylamino]ethyl}biphenyl-4-carboxamide] | < 50 nM | < 50 nM | < 50 nM
